According to ChEMBL document CHEMBL3808382, “Discovery and Structure-Activity Relationship of a Bioactive Fragment of ELABELA that Modulates Vascular and Cardiac Functions” (J Med Chem, 2016):
Values belong to the compound of their own block, whether it stands above or below them. The source made the active and inactive calls. No cut-off for these calls is given here.

How the values were obtained:
Apelin receptor [1] = biological target: T1, Apelin receptor (Homo sapiens, UniProt P35414); experiment: biochemical; type: cell-based, HEK293
T1 sequence (P35414 whole entry): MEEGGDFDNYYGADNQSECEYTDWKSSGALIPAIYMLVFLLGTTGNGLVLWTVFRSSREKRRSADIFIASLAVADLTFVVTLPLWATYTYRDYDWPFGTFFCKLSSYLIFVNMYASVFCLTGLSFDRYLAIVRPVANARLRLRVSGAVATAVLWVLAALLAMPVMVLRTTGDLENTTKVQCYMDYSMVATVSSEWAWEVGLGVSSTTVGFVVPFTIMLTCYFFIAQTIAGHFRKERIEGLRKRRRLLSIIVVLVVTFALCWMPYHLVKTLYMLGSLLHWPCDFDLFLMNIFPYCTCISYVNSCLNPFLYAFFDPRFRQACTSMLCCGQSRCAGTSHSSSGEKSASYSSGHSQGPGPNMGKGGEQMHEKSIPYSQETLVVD

Apelin receptor [2] = biological target: T1, Apelin receptor; experiment: Agonist activity at human APJ receptor expressed in HEK-293 cells assessed as beta-arrestin2 recruitment after 30 mins by BRET assay; type: cell-based, HEK293
Apelin receptor [3] = biological target: T1, Apelin receptor; experiment: Agonist activity at human APJ receptor expressed in HEK-293 cells assessed as dissociation of G-alpha-i1 protein after 5 mins by BRET assay; type: cell-based, HEK293
Rattus norvegicus [4] = experiment: Hypotensive activity in anesthetized Sprague-Dawley rat at 65 nmol/kg, iv as bolus dose; type: functional, organism-based
Rattus norvegicus [5] = experiment: Decrease in K+ concentration in Sprague-Dawley rat urine at 36 pmol/g/min, iv through 24 hrs infusion relative to control; type: functional, organism-based
Rattus norvegicus [6] = experiment: Increase in daily urine output in Sprague-Dawley rat at 36 pmol/g/min, iv through 24 hrs infusion measured during compound dosing; type: functional, organism-based
Rattus norvegicus [7] = experiment: Decrease in urine osmolality in Sprague-Dawley rat at 36 pmol/g/min, iv through 24 hrs infusion relative to control; type: functional, organism-based
Rattus norvegicus [8] = experiment: Hypotensive activity in anesthetized Sprague-Dawley rat assessed as maximal change in heart rate at 293 nmol/kg, iv as bolus dose; type: functional, organism-based
Heart [9] = experiment: Inotropic activity in Langendorff perfused Sprague-Dawley rat heart assessed as increase in left ventricular developed pressure at 0.03 nM relative to control; type: functional; conditions: Heart left ventricle
Rattus norvegicus [10] = experiment: Change in water intake in Sprague-Dawley rat at 36 pmol/g/min, iv through 24 hrs infusion measured during compound dosing; type: functional, organism-based
Rattus norvegicus [11] = experiment: Change in plasma volume in Sprague-Dawley rat at 36 pmol/g/min, iv through 24 hrs infusion measured during compound dosing; type: functional, organism-based
Rattus norvegicus [12] = experiment: Decrease in Na+ concentration in Sprague-Dawley rat urine at 36 pmol/g/min, iv through 24 hrs infusion relative to control; type: functional, organism-based
Rattus norvegicus [13] = experiment: Inotropic activity in Sprague-Dawley rat assessed as induction of left ventricular fractional shortening at 36 pmol/g/min, iv through 24 hrs infusion measured after 6 to 24 hrs by echocardiography; type: functional, organism-based; conditions: Heart left ventricle
Rattus norvegicus [14] = experiment: Hypotensive activity in anesthetized Sprague-Dawley rat assessed as induction of hypotensive rebound at 6.5 to 293 nmol/kg, iv as bolus dose; type: functional, organism-based
Rattus norvegicus [15] = experiment: Hypotensive activity in anesthetized Sprague-Dawley rat assessed as drop in mean arterial pressure at 650 nmol/kg, iv as bolus dose; type: functional, Artery
[16] = Half life in rat plasma at 37 degC; type: ADME, cell-free
Heart [17] = experiment: Inotropic activity in Langendorff perfused Sprague-Dawley rat heart assessed as increase in left ventricular developed pressure; type: functional, tissue-based; conditions: Heart left ventricle
Plasma = experiment: Drug level in rat plasma treated with ELA at 37 degC after 2 hrs by HPLC-MS analysis; type: ADME, cell-free

Ki (Apelin receptor [1]): 0.23 nM
EC50 (Apelin receptor [2]): 151 nM
EC50 (Apelin receptor [3]): 6.6 nM
Compound: CSCC[C@H](NC(=O)[C@@H]1CSSC[C@H](N)C(=O)N[C@@H](CC(C)C)C(=O)N[C@@H](CCC(N)=O)C(=O)N[C@@H](CCCNC(=N)N)C(=O)N[C@@H](CCCNC(=N)N)C(=O)N1)C(=O)N1CCC[C@H]1C(=O)N[C@@H](CC(C)C)C(=O)N[C@@H](Cc1cnc[nH]1)C(=O)N[C@@H](CO)C(=O)N[C@@H](CCCNC(=N)N)C(=O)N[C@H](C(=O)N1CCC[C@H]1C(=O)N[C@@H](Cc1ccccc1)C(=O)N1CCC[C@H]1C(=O)O)C(C)C

Compound: CSCC[C@H](NC(=O)[C@H](N)CS)C(=O)N1CCC[C@H]1C(=O)N[C@@H](CC(C)C)C(=O)N[C@@H](Cc1cnc[nH]1)C(=O)N[C@@H](CO)C(=O)N[C@@H](CCCNC(=N)N)C(=O)N[C@H](C(=O)N1CCC[C@H]1C(=O)N[C@@H](Cc1ccccc1)C(=O)N1CCC[C@H]1C(=O)O)C(C)C
Activity (Rattus norvegicus [4]): inactive

Compound: CSCC[C@@H](NC(=O)[C@@H](CS)NC(=O)[C@@H](CCCNC(=N)N)NC(=O)[C@H](CCCNC(=N)N)NC(=O)[C@H]1CCC(=O)N1)C(=O)N1CCC[C@@H]1C(=O)N[C@H](CC(C)C)C(=O)N[C@H](Cc1cnc[nH]1)C(=O)N[C@H](CO)C(=O)N[C@H](CCCNC(=N)N)C(=O)N[C@@H](C(=O)N1CCC[C@@H]1C(=O)N[C@H](Cc1ccccc1)C(=O)N1CCC[C@@H]1C(=O)O)C(C)C
Activity (Rattus norvegicus [5]): Active
Activity (Rattus norvegicus [6]): Active
Activity (Rattus norvegicus [7]): Active
Activity (Rattus norvegicus [8]): Active
Activity (Heart [9]): Active
Activity (Rattus norvegicus [10]): inactive
Activity (Rattus norvegicus [11]): inactive
Activity (Rattus norvegicus [12]): Active
Activity (Rattus norvegicus [13]): Active
Activity (Rattus norvegicus [14]): inactive

Compound: CSCC[C@H](NC(=O)[C@@H](N)CS)C(=O)N1CCC[C@H]1C(=O)N[C@@H](CC(C)C)C(=O)N[C@@H](Cc1cnc[nH]1)C(=O)N[C@@H](CO)C(=O)N[C@@H](CCCNC(=N)N)C(=O)N[C@H](C(=O)N1CCC[C@H]1C(=O)N[C@@H](Cc1ccccc1)C(=O)N1CCC[C@H]1C(=O)O)C(C)C
Activity (Rattus norvegicus [15]): 10 mmHg

half-life [16]: < 2 min
EC50 (Heart [17]): 0.0015 nM
Compound: CSCC[C@H](NC(=O)[C@H](CS)NC(=O)[C@H](CCCNC(=N)N)NC(=O)[C@H](CCCNC(=N)N)NC(=O)[C@@H]1CCC(=O)N1)C(=O)N1CCC[C@H]1C(=O)N[C@@H](CC(C)C)C(=O)N[C@@H](Cc1cnc[nH]1)C(=O)N[C@@H](CO)C(=O)N[C@@H](CCCNC(=N)N)C(=O)N[C@H](C(=O)N1CCC[C@H]1C(=O)N[C@@H](Cc1ccccc1)C(=O)N1CCC[C@H]1C(=O)O)C(C)C

Drug metabolism (Plasma): metabolite_detected
Compound: H-QRPVNLTMR-OH

Drug metabolism (Plasma): metabolite_detected
Compound: CSCC[C@H](NC(=O)[C@@H]1CSSC[C@H](NC(=O)[C@H](CC(N)=O)NC(=O)[C@H](Cc2c[nH]cn2)NC(=O)[C@H](CCCCN)NC(=O)[C@H](CCCNC(=N)N)NC(=O)[C@H](CC(C)C)NC(=O)[C@@H](N)CCCCN)C(=O)N[C@@H](CC(C)C)C(=O)N[C@@H](CCC(N)=O)C(=O)N[C@@H](CCCNC(=N)N)C(=O)N[C@@H](CCCNC(=N)N)C(=O)N1)C(=O)N1CCC[C@H]1C(=O)N[C@@H](CC(C)C)C(=O)N[C@@H](Cc1c[nH]cn1)C(=O)N[C@@H](CO)C(=O)N[C@@H](CCCNC(=N)N)C(=O)N[C@H](C(=O)N1CCC[C@H]1C(=O)N[C@@H](Cc1ccccc1)C(=O)N1CCC[C@H]1C(=O)O)C(C)C
